Experimental data published in patent publication US20050020482A1, “Methods for modulating gap junctions” (priority 2001, published 2005).

Tests used:
[1] = test system: gap junction function in IMR32; format: cell-based
Protocol: The classical scrape loading test was used to monitor the function of gap junction channels. Briefly, a cut is performed with a fine needle in sub-confluent cell cultures (refer reverse phases micrograph 5B). The culture is then covered with a film of fluorescent dye Lucifer yellow which is not cell permeant. The dye however penetrates the wounded cells along the scrape. From these loaded cells the dye can only be transferred to neighbor cells through the gap junction channels. The number of cell rows that receive the dye after a given time (3 min) provides an estimation of the gap junction function. Primary antibodies specific to PKC isoforms alpha beta I and beta II were introduced individually or in combination (as shown) by endocytosis using a kit from Molecular Probe following the supplier instructions. Controls for the introduction of the specific antibodies were performed by fixing and permeabilizing the cells then staining them with a secondary antibody conjugated to Texas red (Johnson labs).
All documents referred to are incorporated herein by reference.

[2] = test system: IMR32 neuroblastoma cells; assay: Growth of IMR32 neuroblastoma cells in vitro (population size, Hoechst fluorometry); format: cell-based; design: population size, percent of matching controls: concentration or dose not given beside the values; conditions: for population size, percent of matching controls: 24 replica
Protocol: Legend: IMR32 neuroblastoma cells were seeded in 96 well plates at a density of 1000 cells per well. Treatments were as follows: Control cells are untreated and growing in a MEM-based proliferation medium. […] A2+RA treatment consisted of medium A2 supplemented with all trans retinoic acid (RA) 1 uM on day 2; A1+RA consist of RA supplementation 1 uM in the absence of the cAMP analog. The population size (24 replica per treatment) was determined by a procedure using Hoechst as a reagent and cytofluor (BioRad) fluorometer for measurement. The results are expressed as a percent of matching controls.

| Structure (SMILES) | cell death [1] | gap junction function [1] | population size, percent of matching controls ([2]; day 1) [%] | population size, percent of matching controls ([2]; day 2) [%] | population size, percent of matching controls ([2]; day 3) [%] | population size, percent of matching controls ([2]; day 4) [%] | population size, percent of matching controls ([2]; day 5) [%] | population size, percent of matching controls ([2]; day 6) [%] | effect on growth (in words) ([2]; legend of Table 1) |
| --- | --- | --- | --- | --- | --- | --- | --- | --- | --- |
| Oc1ccc(-c2nc(-c3ccncc3)c(-c3ccc(F)cc3)[nH]2)cc1 [SB202190] | died of apoptosis | Gap junction function resuming |  |  |  |  |  |  |  |
| CC1=C(/C=C/C(C)=C/C=C/C(C)=C/C(=O)O)C(C)(C)CCC1 [all trans retinoic acid (RA), all trans retinoic acid] |  |  | 84 | 87 | 90 | 63 | 70 | 68 | not very efficient in affecting growth |
